Drawing on patent US11813306B2, “Cyclic tetramer compounds as proprotein convertase subtilisin/kexin type 9 (PCSK9) inhibitors for the treatment of metabolic disorders” (NOVARTIS AG, priority 2018, dated 2023), this text covers IC50 and Max % inhibition for 14 compounds.

The target in the assay is human PCSK9 (Homo sapiens, UniProt Q8NBP7). The experiment in a line: PCSK9 ligand binding assay (TR-FRET): interference with binding of human PCSK9 to human LDLR. The settings on record: for IC50: Human PCSK9 Alexa Fluor 647 / Human LDLR extracellular domain-Europium Kryptate; for Max % inhibition: efficacy (Amax), 100% = 1 uM unlabeled human PCSK9, 0% = DMSO. In a few lines: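 Read-out was TR-FRET ratio (665 nm over 615 nm, 330 nm excitation) between Alexa Fluor 647-human PCSK9 (16 nM added) and Europium Kryptate-human LDLR ectodomain (4 nM added). Compound and PCSK9 were mixed 30 min before LDLR, then incubated 2 h. Inhibition was normalised to DMSO and unlabelled-PCSK9 controls, giving IC50 and Amax.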
Chain of human PCSK9 (Q8NBP7 153-692): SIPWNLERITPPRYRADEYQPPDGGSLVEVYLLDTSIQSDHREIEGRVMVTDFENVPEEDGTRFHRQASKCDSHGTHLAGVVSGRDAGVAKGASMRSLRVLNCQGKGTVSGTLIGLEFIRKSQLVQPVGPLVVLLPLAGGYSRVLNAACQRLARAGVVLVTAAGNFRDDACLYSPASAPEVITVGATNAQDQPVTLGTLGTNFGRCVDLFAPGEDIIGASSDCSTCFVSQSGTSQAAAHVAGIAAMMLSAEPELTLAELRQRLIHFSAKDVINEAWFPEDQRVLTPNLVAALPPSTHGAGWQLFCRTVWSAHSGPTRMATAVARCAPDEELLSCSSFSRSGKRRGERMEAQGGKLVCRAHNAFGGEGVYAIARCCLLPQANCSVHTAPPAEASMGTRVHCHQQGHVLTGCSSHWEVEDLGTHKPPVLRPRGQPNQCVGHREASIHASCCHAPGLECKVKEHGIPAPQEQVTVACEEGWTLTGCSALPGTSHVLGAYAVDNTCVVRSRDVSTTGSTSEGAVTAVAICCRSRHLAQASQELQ
Chain of human PCSK9 (Q8NBP7 31-152 partner limits assumed): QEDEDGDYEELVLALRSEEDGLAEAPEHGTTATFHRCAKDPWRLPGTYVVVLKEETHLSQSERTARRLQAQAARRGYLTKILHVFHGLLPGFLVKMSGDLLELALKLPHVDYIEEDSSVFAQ
For orientation: In TR-FRET formats the signal depends on donor and acceptor labels being close together.

For `COC[C@@H]1NC(=O)[C@H](C)N(Cc2c(F)cc(Cl)cc2Oc2ccc(-c3cnc(CNC4CCC4)n3C)cc2)C(=O)C[C@@H](CC(F)(F)F)C(=O)N2CCC[C@@](Cc3ccc(Cl)cc3)(C2)NC1=O` [Compound 45, (3S,7S,10S,13R)-6-(4-Chloro-2-(4-(2-((cyclobutylamino)methyl)-1-methyl-1H-imidazol-5-yl)phenoxy)-6-fluorobenzyl)-13-(4-chlorobenzyl)-10-(methoxymethyl)-7-methyl-3-(2,2,2-trifluoroethyl)-1,6,9,12-tetraazabicyclo[11.3.1]heptadecane-2,5,8,11-tetraone], the IC50 amounted to 0.816 nM and the Max % inhibition is on record as 103.7%.
As to `C[C@H]1C(=O)N[C@@H](CO)C(=O)N[C@@]2(Cc3ccc(Cl)cc3)CCCN(C2)C(=O)[C@H](Cc2c(F)cc(F)cc2F)CC(=O)N1Cc1ccc(Cl)cc1Oc1ccc(-c2cnc(CN(C)C)n2C)cc1` [Compound 46, (3R, 7S, 10S, 13R)-6-(4-chloro-2-(4-(2-((dimethylamino)methyl)-1-methyl-1H-imidazol-5-yl)phenoxy)benzyl)-13-(4-chlorobenzyl)-10-(hydroxymethyl)-7-methyl-3-(2,4,6-trifluorobenzyl)-1,6,9,12-tetraazabicyclo[11.3.1]heptadecane-2,5,8,11-tetraone], the IC50 turned out to be 0.568 nM and the Max % inhibition is 112.3%.
`C[C@H]1C(=O)N[C@@H](CO)C(=O)N[C@@]2(Cc3ccc(Cl)cc3)CCCN(C2)C(=O)[C@H](Cc2cccnc2)CC(=O)N1Cc1ccc(Cl)cc1Oc1ccc(-c2cnc(CN3CCOCC3)n2C)cc1.Cl` [Compound 47, (3R, 7S, 10S, 13R)-6-(4-chloro-2-(4-(1-methyl-2-(morpholinomethyl)-1H-imidazol-5-yl)phenoxy)benzyl)-13-(4-chlorobenzyl)-10-(hydroxymethyl)-7-methyl-3-(pyridin-3-ylmethyl)-1,6,9,12-tetraazabicyclo[11.3.1]heptadecane-2,5,8,11-tetraone]: the IC50 was 0.82 nM and the Max % inhibition was 97.0%.
Turning to `C[C@H]1C(=O)N[C@@H](CO)C(=O)N[C@@]2(Cc3ccc(Cl)cc3)CCCN(C2)C(=O)[C@H](Cc2ccc(F)c(F)c2F)CC(=O)N1Cc1c(F)cc(Cl)cc1Oc1ccc(-c2cnc(CN(C)C)n2C)cc1` [Compound 48, (3R, 7S, 10S, 13R)-6-(4-chloro-2-(4-(2-((dimethylamino)methyl)-1-methyl-1H-imidazol-5-yl)phenoxy)-6-fluorobenzyl)-13-(4-chlorobenzyl)-10-(hydroxymethyl)-7-methyl-3-(2,3,4-trifluorobenzyl)-1,6,9,12-tetraazabicyclo[11.3.1]heptadecane-2,5,8,11-tetraone], the IC50 is 0.596 nM and the Max % inhibition worked out at 102.8%.
With `C[C@H]1C(=O)N[C@@H](CO)C(=O)N[C@@]2(Cc3ccc(Cl)cc3)CCCN(C2)C(=O)[C@H]([C@@H]2CCc3ccccc32)CC(=O)N1Cc1c(F)cc(Cl)cc1Oc1ccc(-c2cnc(CN(C)C)n2C)cc1` [Compound 49, (3S, 7S, 10S, 13R)-6-(4-chloro-2-(4-(2-((dimethylamino)methyl)-1-methyl-1H-imidazol-5-yl)phenoxy)-6-fluorobenzyl)-13-(4-chlorobenzyl)-3-((S)-2,3-dihydro-1H-inden-1-yl)-10-(hydroxymethyl)-7-methyl-1,6,9,12-tetraazabicyclo[11.3.1]heptadecane-2,5,8,11-tetraone], the IC50 was found to be 0.631 nM and the Max % inhibition was found to be 102.2%.
On to `C[C@H]1C(=O)N[C@@H](CO)C(=O)N[C@@]2(Cc3ccc(Cl)cc3)CCCN(C2)C(=O)[C@H](Cc2ccccc2)CC(=O)N1Cc1ccc(Cl)cc1Oc1ccc(-c2cnc(CN(C)C)n2C)cc1` [Compound 50, (3R,7S,10S,13R)-3-Benzyl-6-(4-chloro-2-(4-(2-((dimethylamino)methyl)-1-methyl-1H-imidazol-5-yl)phenoxy)benzyl)-13-(4-chlorobenzyl)-10-(hydroxymethyl)-7-methyl-1,6,9,12-tetraazabicyclo[11.3.1]heptadecane-2,5,8,11-tetraone], for which the half-maximal inhibitory concentration (IC50) came to 0.51 nM and the Max % inhibition stood at 108.7%.
On to `CCC[C@@H]1CC(=O)N(Cc2c(F)cc(Cl)cc2Oc2ccc(-c3cnc(CN(C)C)n3C)cc2)[C@@H](C)C(=O)N[C@@H](CO)C(=O)N[C@@]2(Cc3ccc(Cl)cc3)CCCN(C2)C1=O` [Compound 51, (3R, 7S, 10S, 13R)-6-(4-chloro-2-(4-(2-((dimethylamino)methyl)-1-methyl-1H-imidazol-5-yl)phenoxy)-6-fluorobenzyl)-13-(4-chlorobenzyl)-10-(hydroxymethyl)-7-methyl-3-propyl-1,6,9,12-tetraazabicyclo[11.3.1]heptadecane-2,5,8,11-tetraone], for which the IC50 stood at 1.12 nM and the Max % inhibition was found to be 101.3%.
For `COC[C@@H]1NC(=O)[C@H](C)N(Cc2ccc(Cl)cc2Oc2ccc(-c3cnc(CN(C)C)n3C)nc2)C(=O)C[C@@H](Cc2ccccc2)C(=O)N2CCC[C@@](Cc3ccc(Cl)cc3)(C2)NC1=O` [Compound 52, (3R, 7S, 10S, 13R)-3-benzyl-6-(4-chloro-2-((6-(2-((dimethylamino)methyl)-1-methyl-1H-imidazol-5-yl)pyridin-3-yl)oxy)benzyl)-13-(4-chlorobenzyl)-10-(methoxymethyl)-7-methyl-1,6,9,12-tetraazabicyclo[11.3.1]heptadecane-2,5,8,11-tetraone], the IC50 amounted to 0.61 nM and the Max % inhibition stood at 112.5%.
As for `C[C@H]1C(=O)N[C@@H](CO)C(=O)N(C)[C@@]2(Cc3ccc(Cl)cc3)CCCN(C2)C(=O)[C@H](Cc2ccccc2)CC(=O)N1Cc1ccc(Cl)cc1Oc1ccc(-c2cnc(CN(C)C)n2C)cc1` [Compound 53, (3R, 7S, 10S, 13R)-3-benzyl-6-(4-chloro-2-(4-(2-((dimethylamino)methyl)-1-methyl-1H-imidazol-5-yl)phenoxy)benzyl)-13-(4-chlorobenzyl)-10-(hydroxymethyl)-7,12-dimethyl-1,6,9,12-tetraazabicyclo[11.3.1]heptadecane-2,5,8,11-tetraone], the IC50 worked out at 0.7 nM and the Max % inhibition amounted to 107.4%.
Turning to `C[C@H]1C(=O)N[C@@H](CO)C(=O)N[C@@]2(Cc3ccc(Cl)cc3)CCCN(C2)C(=O)[C@H](Cc2ccccc2)CC(=O)N1Cc1cc(F)c(Cl)cc1Oc1ccc(-c2cnc(CN(C)C)n2C)cc1` [Compound 54, (3R, 7S, 10S, 13R)-3-benzyl-6-(4-chloro-2-(4-(2-((dimethylamino)methyl)-1-methyl-1H-imidazol-5-yl)phenoxy)-5-fluorobenzyl)-13-(4-chlorobenzyl)-10-(hydroxymethyl)-7-methyl-1,6,9,12-tetraazabicyclo[11.3.1]heptadecane-2,5,8,11-tetraone], the IC50 is 0.624 nM and the Max % inhibition worked out at 109.4%.
In the case of `C[C@H]1C(=O)N[C@@H](CO)C(=O)N[C@@]2(Cc3ccc(Cl)cc3)CCCN(C2)C(=O)[C@H]([C@@H]2CCc3ccccc32)CC(=O)N1Cc1ccccc1Oc1ccc(-c2cnc(CN(C)C)n2C)cc1` [Compound 55, (3S,7S,10S,13R)-13-(4-chlorobenzyl)-3-((S)-2,3-dihydro-1H-inden-1-yl)-6-(2-(4-(2-((dimethylamino)methyl)-1-methyl-1H-imidazol-5-yl)phenoxy)benzyl)-10-(hydroxymethyl)-7-methyl-1,6,9,12-tetraazabicyclo[11.3.1]heptadecane-2,5,8,11-tetraone], the IC50 is 0.742 nM and the Max % inhibition stood at 96.0%.
With `C[C@H]1C(=O)N[C@@H](CO)C(=O)N[C@@]2(Cc3ccc(Cl)cc3)CCCN(C2)C(=O)[C@H](Cc2ccccc2)CC(=O)N1Cc1ccc(Cl)cc1Oc1ccc(-c2nnc(CN(C)C)n2C)cc1` [Compound 56, (3R, 7S, 10S, 13R)-3-benzyl-6-(4-chloro-2-(4-(5-((dimethylamino)methyl)-4-methyl-4H-1,2,4-triazol-3-yl)phenoxy)benzyl)-13-(4-chlorobenzyl)-10-(hydroxymethyl)-7-methyl-1,6,9,12-tetraazabicyclo[11.3.1]heptadecane-2,5,8,11-tetraone], the IC50 was found to be 0.425 nM and the Max % inhibition is on record as 101.7%.
For `COC[C@@H]1NC(=O)[C@H](C)N(Cc2c(F)cc(Cl)cc2Oc2ccc(-c3cnc(CN(C)C)n3C)cc2)C(=O)C[C@@H](Cc2ccccn2)C(=O)N2CCC[C@@](Cc3ccc(Cl)cc3)(C2)N(C)C1=O` [Compound 57, (3R,7S,10S,13R)-6-(4-Chloro-2-(4-(2-((dimethylamino)methyl)-1-methyl-1H-imidazol-5-yl)phenoxy)-6-fluorobenzyl)-13-(4-chlorobenzyl)-10-(methoxymethyl)-7,12-dimethyl-3-(pyridin-2-ylmethyl)-1,6,9,12-tetraazabicyclo[11.3.1]heptadecane-2,5,8,11-tetraone], in that order: 0.763 nM and 115.6%.
Regarding `C[C@H]1C(=O)N[C@@H](CO)C(=O)N[C@@]2(Cc3ccc(Cl)cc3)CCCN(C2)C(=O)[C@H](CC(F)F)NC(=O)N1Cc1ccc(Cl)cc1Oc1ccc(-c2cnc(CN(C)C)n2C)cc1.Cl` [Compound 58, (3S, 7S, 10S, 13R)-6-(4-chloro-2-(4-(2-((dimethylamino)methyl)-1-methyl-1H-imidazol-5-yl)phenoxy)benzyl)-13-(4-chlorobenzyl)-3-(2,2-difluoroethyl)-10-(hydroxymethyl)-7-methyl-1,4,6,9,12-pentaazabicyclo[11.3.1]heptadecane-2,5,8,11-tetraone], the IC50 stood at 0.367 nM and the Max % inhibition worked out at 106.6%.

Usually IC50 stands for the concentration at which inhibition is half-maximal. Read a low IC50 as higher potency.
